Values after ≈ are worked out from the molar mass of the structure shown. Read-outs that look alike come from different tables or passages of the source. Numbered stars: 1 amine (or outer) side, 2 acyl side, 3 side chain; on linkers, the order of the positions; unused ones are H or OH. Bridge positions count the residues as written; N and C are the ends. Square brackets hold non-standard residues; d marks the D form. Peptide text beside a SMILES is read from it. * marks the point of attachment. hTyr(3S-OH,4S-OH,3'-OSO3H) = N[C@H](C(=O)O)[C@H](O)[C@@H](O)c1ccc(O)c(OS(=O)(=O)O)c1; Orn(4R-OH,5R-OH) = O=C([C@H](C[C@@H](O)[C@@H](O)N[*:3])N[*:1])[*:2]; Pro(3S-OH,4S-Me) = C[C@H]1CN[C@H](C(=O)O)[C@H]1O; X1 = CCCCCOc1ccc(-c2cc(-c3ccc(C(=O)*)cc3)no2)cc1; Gln(3R-OH) = NC(=O)C[C@@H](O)[C@H](N)C(=O)O; Hyp = O=C(O)[C@@H]1C[C@@H](O)CN1
Tested on: C. albicans isolates
Assay: Broth microdilution susceptibility (CLSI M27-A3) at different medium pH
Format: cell-based, Candida albicans
Details: for MIC range: 50% inhibition, 10 vaginal isolates; for MIC50 / MIC90 / MIC: Candida albicans, 24 h
Protocol: Ten strains each of C. glabrata and C. albicans vaginal isolates were tested. The strains were obtained from recent clinical trial patients with vulvovaginal candidiasis (VVC) prior to treatment. Candida strains were obtained from the Mycology Reference Library (MRL) at Case Western Reserve University School of Medicine, Ohio, United States.
Susceptibility testing was performed using a broth microdilution method, according to CLSI M27-A3 guidelines (CLSI. 2008. Reference Method for Broth Dilution Antifungal Susceptibility Testing of Yeasts; Approved Standard—Third Edition. Clinical and Laboratory Standards Institute, CLSI document M27-A3). Antifungals and concentrations tested were SCY-078 and micafungin (both at concentrations within the range of 0.015 to 8 μg/ml) and fluconazole (at concentrations within the range of 0.125 to 64 μg/ml). A 0.1-ml C. albicans and C. glabrata inoculum of 0.5-2.5×10^3 blastospores/ml in RPMI 1640 medium was added to each microdilution well. ATCC strains of Candida parapsilosis and Candida krusei QC isolates were also included concurrently to ensure quality control. Antifungal susceptibility testing was carried out for each isolate in RPMI 1640 at pH 7 (to mimic RPMI medium used in testing the susceptibility of yeast by the CLSI M-27A3 document), pH 5.7, and pH 4.5 (to mimic the pH of the vaginal cavity) by adjusting the pH of the media using NaOH or HCl. […] Agents Chemother., 43: 1383-1386 (1999).
[…] SCY-078 powder was manufactured by Avista, Laboratories, NC. Micafungin and fluconazole were sourced from LGM Pharma.

Molecule `CCCCCOc1ccc(-c2cc(-c3ccc(C(=O)N[C@H]4C[C@@H](O)[C@@H](O)NC(=O)[C@@H]5[C@@H](O)[C@@H](C)CN5C(=O)[C@H]([C@H](O)CC(N)=O)NC(=O)[C@H]([C@H](O)[C@@H](O)c5ccc(O)c(OS(=O)(=O)O)c5)NC(=O)[C@@H]5C[C@@H](O)CN5C(=O)[C@H]([C@@H](C)O)NC4=O)cc3)no2)cc1` [Micafungin, reference compound] (X1-[Orn(4R-OH,5R-OH)]T[Hyp][hTyr(3S-OH,4S-OH,3'-OSO3H)][Gln(3R-OH)][Pro(3S-OH,4S-Me)]; lactam 1-C) has an MIC range (pH 4.5, 24 h) of 0.25 to 0.5 µg/mL, an MIC range (pH 5.72, 24 h) of 0.063 to 1 µg/mL and an MIC range (pH 7.0, 24 h) of 0.25 µg/mL (≈ 0.197 µM). For the same molecule, the MIC50 (pH 4.5) was 0.5 µg/mL (≈ 0.394 µM), the MIC90 (pH 4.5) was 0.5 µg/mL (≈ 0.394 µM) and the MIC (pH 4.5, read-out: MIC (50% inhibition), C. albicans MRL 34366, pH 4.5, 24 hours) was 0.5 µg/mL (≈ 0.394 µM). For the same molecule, the MIC (pH 4.5, read-out: MIC (50% inhibition), C. albicans MRL 34367, pH 4.5, 24 hours) was 0.5 µg/mL (≈ 0.394 µM), the MIC (pH 4.5, read-out: MIC (50% inhibition), C. albicans MRL 34372, pH 4.5, 24 hours) was 0.5 µg/mL (≈ 0.394 µM) and the MIC (pH 4.5, read-out: MIC (50% inhibition), C. albicans MRL 34373, pH 4.5, 24 hours) was 0.5 µg/mL (≈ 0.394 µM). For the same molecule, the MIC (pH 4.5, read-out: MIC (50% inhibition), C. albicans MRL 34374, pH 4.5, 24 hours) was 0.5 µg/mL (≈ 0.394 µM), the MIC (pH 4.5, read-out: MIC (50% inhibition), C. albicans MRL 34385, pH 4.5, 24 hours) was 0.5 µg/mL (≈ 0.394 µM) and the MIC (pH 4.5, read-out: MIC (50% inhibition), C. albicans MRL 34389, pH 4.5, 24 hours) was 0.5 µg/mL (≈ 0.394 µM). For the same molecule, the MIC (pH 4.5, read-out: MIC (50% inhibition), C. albicans MRL 34399, pH 4.5, 24 hours) was 0.5 µg/mL (≈ 0.394 µM), the MIC (pH 4.5, read-out: MIC (50% inhibition), C. albicans MRL 34408, pH 4.5, 24 hours) was 0.25 µg/mL (≈ 0.197 µM) and the MIC (pH 4.5, read-out: MIC (50% inhibition), C. albicans MRL 34449, pH 4.5, 24 hours) was 0.5 µg/mL (≈ 0.394 µM). The MIC50 (pH 5.72) was 1 µg/mL (≈ 0.787 µM), the MIC90 (pH 5.72) was 1 µg/mL (≈ 0.787 µM) and the MIC (pH 5.72, read-out: MIC (50% inhibition), C. albicans MRL 34366, pH 5.72, 24 hours) was 0.5 µg/mL (≈ 0.394 µM). It also gave an MIC (pH 5.72, read-out: MIC (50% inhibition), C. albicans MRL 34367, pH 5.72, 24 hours) of 0.5 µg/mL (≈ 0.394 µM), an MIC (pH 5.72, read-out: MIC (50% inhibition), C. albicans MRL 34372, pH 5.72, 24 hours) of 1 µg/mL (≈ 0.787 µM) and an MIC (pH 5.72, read-out: MIC (50% inhibition), C. albicans MRL 34373, pH 5.72, 24 hours) of 1 µg/mL (≈ 0.787 µM). It also gave an MIC (pH 5.72, read-out: MIC (50% inhibition), C. albicans MRL 34374, pH 5.72, 24 hours) of 1 µg/mL (≈ 0.787 µM), an MIC (pH 5.72, read-out: MIC (50% inhibition), C. albicans MRL 34385, pH 5.72, 24 hours) of 1 µg/mL (≈ 0.787 µM) and an MIC (pH 5.72, read-out: MIC (50% inhibition), C. albicans MRL 34389, pH 5.72, 24 hours) of 1 µg/mL (≈ 0.787 µM). It also gave an MIC (pH 5.72, read-out: MIC (50% inhibition), C. albicans MRL 34399, pH 5.72, 24 hours) of 1 µg/mL (≈ 0.787 µM), an MIC (pH 5.72, read-out: MIC (50% inhibition), C. albicans MRL 34408, pH 5.72, 24 hours) of 0.063 µg/mL (≈ 0.0496 µM) and an MIC (pH 5.72, read-out: MIC (50% inhibition), C. albicans MRL 34449, pH 5.72, 24 hours) of 0.25 µg/mL (≈ 0.197 µM). For the same molecule, the MIC50 (pH 7) was 0.25 µg/mL (≈ 0.197 µM), the MIC90 (pH 7) was 0.25 µg/mL (≈ 0.197 µM) and the MIC (pH 7, read-out: MIC (50% inhibition), C. albicans MRL 34366, pH 7.0, 24 hours) was 0.25 µg/mL (≈ 0.197 µM). For the same molecule, the MIC (pH 7, read-out: MIC (50% inhibition), C. albicans MRL 34367, pH 7.0, 24 hours) was 0.25 µg/mL (≈ 0.197 µM), the MIC (pH 7, read-out: MIC (50% inhibition), C. albicans MRL 34372, pH 7.0, 24 hours) was 0.25 µg/mL (≈ 0.197 µM) and the MIC (pH 7, read-out: MIC (50% inhibition), C. albicans MRL 34373, pH 7.0, 24 hours) was 0.25 µg/mL (≈ 0.197 µM). For the same molecule, the MIC (pH 7, read-out: MIC (50% inhibition), C. albicans MRL 34374, pH 7.0, 24 hours) was 0.25 µg/mL (≈ 0.197 µM), the MIC (pH 7, read-out: MIC (50% inhibition), C. albicans MRL 34385, pH 7.0, 24 hours) was 0.25 µg/mL (≈ 0.197 µM) and the MIC (pH 7, read-out: MIC (50% inhibition), C. albicans MRL 34389, pH 7.0, 24 hours) was 0.25 µg/mL (≈ 0.197 µM). It also gave an MIC (pH 7, read-out: MIC (50% inhibition), C. albicans MRL 34399, pH 7.0, 24 hours) of 0.25 µg/mL (≈ 0.197 µM), an MIC (pH 7, read-out: MIC (50% inhibition), C. albicans MRL 34408, pH 7.0, 24 hours) of 0.25 µg/mL (≈ 0.197 µM) and an MIC (pH 7, read-out: MIC (50% inhibition), C. albicans MRL 34449, pH 7.0, 24 hours) of 0.25 µg/mL (≈ 0.197 µM).

— US20260000656A1, “ANTIFUNGAL AGENTS WITH ENHANCED ACTIVITY IN ACIDIC PH” (Scynexis, Inc., priority 2017, published 2026)
